Key:
[1] = test system: chloroquine-pyrimethamine-resistant Vietnam Smith strain of P. Falciparum; assay: Owl monkey infection with P. falciparum trophozoites, Vietnam Smith strain; type: in vivo, owl monkeys; conditions: for curative: orally at 2.0 mg/kg/day for a three day period; for cleared the parasitemia: orally at 1.0 mg/kg/day for three days
Procedure: (§1) Studies were also conducted with infections resulting from inoculations of owl monkeys with trophozoites of the chloroquine-pyrimethamine-resistant Vietnam Smith strain of P. Falciparum; the chloroquine-quinine-resistant, pyrimethamine-susceptible Vietnam Oak Knoll strain of P. Falciparum; or the pyrimethamine-resistant Uganda Palo Alto strain of P. Falciparum. The test method is described in L. H. Schmidt, Trans. R. Soc. Trop. Med Hyg. 67 446 (1973).

[2] = test system: chloroquine-quinine-resistant, pyrimethamine-susceptible Vietnam Oak Knoll strain of P. Falciparum; assay: Owl monkey infection with P. falciparum trophozoites, Vietnam Oak Knoll strain; type: in vivo, owl monkeys; conditions: for activity relative to amodiaquine as curative agents: Oak Knoll strains of the malaria parasite; for curative / cleared the parasitemia: Vietnam Oak Knoll strain; for curative: orally at 2.0 mg/kg/day for a three day period; for activity relative to amodiaquine in clearing parasites: Oak Knoll strain; for cleared the parasitemia: orally at 1.0 mg/kg/day for three days
Procedure: as §1

[3] = Burckhalter article, Tables VI and XI; cited from earlier work
[4] = test system: pyrimethamine-resistant Uganda Palo Alto strain of P. Falciparum; assay: Owl monkey infection with P. falciparum trophozoites, Uganda Palo Alto strain; type: in vivo, owl monkeys; conditions: orally at 1.0 mg/kg/day for three days
Procedure: as §1

[5] = test system: normal drug-sensitive strain of Plasmodium berghei; assay: Plasmodium berghei in mice, single subcutaneous dose 72 h post infection, mean survival time and cures; type: in vivo; conditions: Table I; for MST after single s.c. dose (extension of survival time over the controls): animals not cured, control MST 6.1-6.3 days; for MST after single s.c. dose: animals cured (C): five animal group
Procedure: Compounds of the invention were tested against a normal drug-sensitive strain of Plasmodium berghei in mice by the parenteral route by a procedure described in J. Med. Chem., 1043 (1967). The compounds were dissolved or suspended in sesame or peanut oil and were administered to mice in a single subcutaneous dose seventy-two hours post infection. Extension of the mean survival time of the treated mice is interpreted as evidence of anti-malarial activity. Compounds are arbitrarily considered to be "active" when they produce at least a 100 percent increase in the mean survival time of treated mice. Animals that survive to sixty days are considered "cured" (termed "C" in Tables I and II). The means survival time (MST) of infected control mice ranges from 6.1-6.3 days while the numbers in parentheses in Tables I and II indicate extension of survival time over the controls as an average for those animals of the five animal group not "cured".

## CCN(CC)Cc1cc(Nc2cc[n+]([O-])c3cc(Cl)ccc23)cc(-c2ccc(Cl)cc2)c1O [Example 1]
[1]
  curative: curative
[2]
  activity relative to amodiaquine as curative agents: twenty times the activity of amodiaquine
  curative: curative

## CC(C)(C)NCc1cc(Nc2cc[n+]([O-])c3cc(Cl)ccc23)cc(-c2ccc(Cl)cc2)c1O [4—Cl, H, NHC(CH3)3, 1, 4'-chloro-5-[(7-chloro-4-quinolinyl)aminoj-3-[[1,1-dimethylethyl)amino]methyl]-[1,1'-biphenyl]-2-ol-1-oxide]
[1]
  curative: curative
[2]
  activity relative to amodiaquine as curative agents: twenty times the activity of amodiaquine
  curative: curative

## C=CCc1cc(Nc2ccnc3cc(Cl)ccc23)cc(CN(CC)CC)c1O [SN-11991]
[3]
  quinine equivalent: 10

## CCN(CC)Cc1cc(Nc2ccnc3cc(Cl)ccc23)cc(-c2ccc(Cl)cc2)c1O [Example 2, 4'-chloro-5-[(7-chloro-4-quinolinyl)amino]-3-[(diethylamino)methyl][1,1'-biphenyl]-2-ol]
[4]
  cleared the parasitemia: cleared the parasitemia
[1]
  cleared the parasitemia: cleared the parasitemia
[2]
  activity relative to amodiaquine in clearing parasites: twenty times the activity of amodiaquine
  cleared the parasitemia: cleared the parasitemia
[5]; dose 10 (dose unit not given)
  MST after single s.c. dose (extension of survival time over the controls): 14.2 days
  MST after single s.c. dose: animals cured (C): 2C
[5]; dose 20 (dose unit not given)
  MST after single s.c. dose: animals cured (C): 3C
[5]; dose 40 (dose unit not given)
  MST after single s.c. dose: animals cured (C): 4C
[5]; dose 80 (dose unit not given)
  MST after single s.c. dose: animals cured (C): 5C
[5]; dose 160 (dose unit not given)
  MST after single s.c. dose: animals cured (C): 5C
[5]; dose 320 (dose unit not given)
  MST after single s.c. dose: animals cured (C): 5C
[5]; dose 640 (dose unit not given)
  MST after single s.c. dose: animals cured (C): 5C

## CCN(CC)Cc1cc(Nc2ccnc3cc(Cl)ccc23)ccc1O [Amodiaquine, reference compound]
[5]; dose 10 (dose unit not given)
  MST after single s.c. dose (extension of survival time over the controls): 5.7 days
[5]; dose 20 (dose unit not given)
  MST after single s.c. dose (extension of survival time over the controls): 8.3 days
[5]; dose 40 (dose unit not given)
  MST after single s.c. dose (extension of survival time over the controls): 11.9 days
[5]; dose 80 (dose unit not given)
  MST after single s.c. dose: animals cured (C): 2C
[5]; dose 160 (dose unit not given)
  MST after single s.c. dose: animals cured (C): 5C
[5]; dose 320 (dose unit not given)
  MST after single s.c. dose: animals cured (C): 5C
[5]; dose 640 (dose unit not given)
  MST after single s.c. dose: animals cured (C): 5C

## CC(C)(C)NCc1cc(Nc2ccnc3cc(Cl)ccc23)cc(-c2ccc(Cl)cc2)c1O [Example 3, 4'-chloro-5-[(7-chloro-4-quinolinyl)amino]-3-[[(1,1-dimethylethyl)amino]methyl][1,1'-biphenyl]-2-ol]
[4]
  cleared the parasitemia: cleared the parasitemia
[1]
  cleared the parasitemia: cleared the parasitemia
[2]
  activity relative to amodiaquine in clearing parasites: twenty times the activity of amodiaquine
  cleared the parasitemia: cleared the parasitemia

## CCN(CC)Cc1cc(Nc2ccnc3cc(Cl)ccc23)cc(Cl)c1O [SN-13729]
[3]
  quinine equivalent: 12

Source: patent EP0027679B1, “Substituted-5-((7-chloro-4-quinolinyl)amino)-3-(amino-methyl)-(1,1'-biphenyl)-2-ol compounds; processes for their production; and pharmaceutical compositions containing the compounds” (WARNER-LAMBERT COMPANY, priority 1979, dated 1981)
